What was measured:
[1] = system: ICR mice; test: Measurement of respiration (whole body plethysmography); type: in vivo; conditions: 2 mg/kg
Protocol: A whole body plethysmography (DSI, US) was used to measure respiration in freely moving ICR mice (half male and half female) as described previously ([Manglik et al., 2016]; [Hill et al., 2018a]; [Hill et al., 2018b]) with some modifications. The respiratory frequency was recorded and then averaged for over 5-min period. The baseline values were recorded for 10 min before dosing. The mice were then removed from the chambers and given drugs, and respiration was then measured for 45 min.

[2] = molecular target: T1, Cyclooxygenase COX-1 (Homo sapiens, UniProt P23219); test: In vitro SafetyScreen panel; type: biochemical
T1 construct: Eurofins Discovery (contract panel) PP223
Protocol: (§1) In vitro off-target pharmacological activities of HSK21542 were evaluated on 86 targets using a SafetyScreen panel (Item PP223, target selectivity panel) and the corresponding methods could be found at https://www.eurofinsdiscoveryservices.com/.

[3] = molecular target: T2, Protein Tyrosine Kinase, LCK (Homo sapiens, UniProt P06239); test: In vitro SafetyScreen panel; type: biochemical
T2 construct: Eurofins Discovery (outsourced panel) PP223
T2 sequence (P06239 whole entry): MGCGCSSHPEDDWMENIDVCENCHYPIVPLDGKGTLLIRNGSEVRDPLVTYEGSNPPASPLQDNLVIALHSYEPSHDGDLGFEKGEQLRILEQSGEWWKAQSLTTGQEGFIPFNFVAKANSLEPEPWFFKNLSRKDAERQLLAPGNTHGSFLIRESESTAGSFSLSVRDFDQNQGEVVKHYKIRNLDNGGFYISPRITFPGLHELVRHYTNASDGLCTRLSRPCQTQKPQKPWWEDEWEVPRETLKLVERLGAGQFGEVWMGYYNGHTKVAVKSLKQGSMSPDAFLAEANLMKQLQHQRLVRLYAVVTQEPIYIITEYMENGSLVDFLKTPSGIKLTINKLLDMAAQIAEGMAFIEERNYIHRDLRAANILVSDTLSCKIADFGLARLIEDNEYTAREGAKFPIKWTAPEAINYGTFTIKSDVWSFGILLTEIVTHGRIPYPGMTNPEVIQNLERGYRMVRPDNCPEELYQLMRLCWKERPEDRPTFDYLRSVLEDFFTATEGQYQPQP
Protocol: as §1

[4] = molecular target: T3, Monoamine Oxidase MAO-B (Homo sapiens, UniProt P27338); test: In vitro SafetyScreen panel; type: biochemical
T3 construct: Eurofins Discovery (outsourced panel) PP223
Protocol: as §1

[5] = molecular target: T4, Cyclooxygenase COX-2 (Homo sapiens, UniProt P35354); test: In vitro SafetyScreen panel; type: biochemical
T4 construct: Eurofins Discovery (contract panel) Item PP223
Protocol: as §1

[6] = molecular target: T5, Cholinesterase, Acetyl, ACES (Homo sapiens, UniProt P22303); test: In vitro SafetyScreen panel; type: biochemical
T5 construct: Eurofins Discovery (contract panel) PP223
Protocol: as §1

[7] = molecular target: T6, Protein Tyrosine Kinase, Insulin Receptor (Homo sapiens, UniProt P06213); test: In vitro SafetyScreen panel; type: biochemical
T6 construct: Eurofins Discovery (outsourced panel) PP223
T6 sequence (P06213 28-1382): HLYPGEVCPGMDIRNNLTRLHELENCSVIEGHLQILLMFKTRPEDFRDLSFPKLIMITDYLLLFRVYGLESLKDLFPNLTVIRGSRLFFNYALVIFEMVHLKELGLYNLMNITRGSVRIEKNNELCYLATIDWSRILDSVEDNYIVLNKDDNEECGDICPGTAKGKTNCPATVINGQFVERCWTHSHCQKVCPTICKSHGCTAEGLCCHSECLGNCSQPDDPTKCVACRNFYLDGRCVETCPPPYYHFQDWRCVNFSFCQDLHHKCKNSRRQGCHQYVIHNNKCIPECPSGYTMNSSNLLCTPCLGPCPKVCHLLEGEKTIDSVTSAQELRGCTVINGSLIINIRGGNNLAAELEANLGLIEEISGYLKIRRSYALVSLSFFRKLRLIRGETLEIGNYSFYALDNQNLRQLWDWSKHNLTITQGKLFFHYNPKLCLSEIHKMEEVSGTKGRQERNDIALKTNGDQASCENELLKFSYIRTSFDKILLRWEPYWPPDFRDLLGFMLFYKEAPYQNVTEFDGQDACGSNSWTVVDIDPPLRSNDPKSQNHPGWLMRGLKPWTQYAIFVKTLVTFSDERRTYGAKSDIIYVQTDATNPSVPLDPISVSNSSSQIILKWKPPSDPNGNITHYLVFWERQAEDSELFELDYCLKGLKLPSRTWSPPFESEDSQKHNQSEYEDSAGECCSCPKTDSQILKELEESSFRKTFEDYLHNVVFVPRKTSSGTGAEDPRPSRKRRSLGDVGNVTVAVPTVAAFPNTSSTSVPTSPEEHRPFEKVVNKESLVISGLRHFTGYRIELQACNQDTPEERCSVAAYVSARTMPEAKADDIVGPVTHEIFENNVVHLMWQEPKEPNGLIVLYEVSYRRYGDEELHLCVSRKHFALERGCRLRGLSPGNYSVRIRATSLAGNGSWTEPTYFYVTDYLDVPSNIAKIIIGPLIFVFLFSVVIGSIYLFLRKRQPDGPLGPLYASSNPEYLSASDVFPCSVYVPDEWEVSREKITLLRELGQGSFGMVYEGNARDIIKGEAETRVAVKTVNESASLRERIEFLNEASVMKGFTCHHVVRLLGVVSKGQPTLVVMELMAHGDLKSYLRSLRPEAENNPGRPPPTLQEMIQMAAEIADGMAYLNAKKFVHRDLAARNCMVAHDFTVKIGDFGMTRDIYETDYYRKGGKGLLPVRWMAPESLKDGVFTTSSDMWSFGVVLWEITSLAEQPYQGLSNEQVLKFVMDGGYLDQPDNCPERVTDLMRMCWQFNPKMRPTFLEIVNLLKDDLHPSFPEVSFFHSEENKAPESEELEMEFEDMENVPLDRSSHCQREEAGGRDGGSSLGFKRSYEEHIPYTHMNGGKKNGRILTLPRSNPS
Protocol: as §1

[8] = molecular target: T7, Monoamine Oxidase MAO-A (Homo sapiens, UniProt P21397); test: In vitro SafetyScreen panel; type: biochemical
T7 construct: Eurofins Discovery (contract panel) Item PP223
Protocol: as §1

[9] = molecular target: T8, Peptidase, CTSG (Cathepsin G) (Homo sapiens, UniProt P08311); test: In vitro SafetyScreen panel; type: biochemical
T8 construct: Eurofins Discovery (outsourced panel) PP223
Protocol: as §1

[10] = molecular target: T9, Muscarinic M3 (Homo sapiens, UniProt P20309); test: In vitro SafetyScreen panel; type: binding
T9 construct: Eurofins Discovery (outsourced panel) PP223
Protocol: as §1

[11] = molecular target: T10, Serotonin (5-Hydroxytryptamine) 5-HT1B (Homo sapiens, UniProt P28222); test: In vitro SafetyScreen panel; type: binding
T10 construct: Eurofins Discovery (outsourced panel) PP223
T10 sequence (P28222 whole entry): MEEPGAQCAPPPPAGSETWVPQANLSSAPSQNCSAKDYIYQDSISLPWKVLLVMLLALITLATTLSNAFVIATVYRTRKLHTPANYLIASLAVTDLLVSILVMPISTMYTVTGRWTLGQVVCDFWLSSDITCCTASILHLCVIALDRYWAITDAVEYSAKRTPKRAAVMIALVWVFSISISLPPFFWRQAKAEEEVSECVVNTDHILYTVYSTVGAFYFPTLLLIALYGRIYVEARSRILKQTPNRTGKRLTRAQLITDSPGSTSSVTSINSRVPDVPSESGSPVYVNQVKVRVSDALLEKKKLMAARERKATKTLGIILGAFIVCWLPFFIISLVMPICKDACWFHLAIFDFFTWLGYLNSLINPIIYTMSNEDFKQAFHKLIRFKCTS
Protocol: as §1

[12] = molecular target: T11, Serotonin (5-Hydroxytryptamine) 5-HT1A (Homo sapiens, UniProt P08908); test: In vitro SafetyScreen panel; type: binding
T11 construct: Eurofins Discovery (outsourced panel) PP223
Protocol: as §1

[13] = molecular target: T12, Adrenergic α1B (Rattus norvegicus, UniProt P15823); test: In vitro SafetyScreen panel; type: binding
T12 construct: Eurofins Discovery (contract panel) PP223
Protocol: as §1

[14] = molecular target: T13, Platelet Activating Factor (PAF) (Homo sapiens, UniProt P25105); test: In vitro SafetyScreen panel; type: binding
T13 construct: Eurofins Discovery (outsourced panel) PP223
Protocol: as §1

[15] = molecular target: T14, Potassium Channel hERG (Homo sapiens, UniProt Q12809); test: In vitro SafetyScreen panel; type: binding
T14 construct: Eurofins Discovery (outsourced panel) PP223
Protocol: as §1

[16] = molecular target: T15, Serotonin (5-Hydroxytryptamine) 5-HT3 (Homo sapiens, UniProt P46098); test: In vitro SafetyScreen panel; type: binding
T15 construct: Eurofins Discovery (contract panel) PP223
T15 sequence (P46098 24-478): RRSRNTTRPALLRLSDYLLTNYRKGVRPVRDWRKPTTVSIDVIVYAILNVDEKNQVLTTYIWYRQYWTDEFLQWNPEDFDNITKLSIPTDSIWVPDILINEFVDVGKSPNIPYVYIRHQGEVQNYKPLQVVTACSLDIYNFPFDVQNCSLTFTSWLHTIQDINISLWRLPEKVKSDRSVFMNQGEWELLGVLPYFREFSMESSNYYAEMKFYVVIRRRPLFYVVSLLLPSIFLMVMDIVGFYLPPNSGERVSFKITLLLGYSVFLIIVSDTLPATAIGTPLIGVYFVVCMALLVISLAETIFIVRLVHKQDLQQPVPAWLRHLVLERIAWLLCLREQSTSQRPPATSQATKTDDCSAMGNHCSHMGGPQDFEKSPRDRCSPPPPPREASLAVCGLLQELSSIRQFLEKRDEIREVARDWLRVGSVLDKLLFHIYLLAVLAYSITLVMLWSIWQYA
Protocol: as §1

[17] = molecular target: T16, Adrenergic α2B (Homo sapiens, UniProt P18089); test: In vitro SafetyScreen panel; type: binding
T16 construct: Eurofins Discovery (contract panel) PP223
Protocol: as §1

[18] = molecular target: T17, Muscarinic M2 (Homo sapiens, UniProt P08172); test: In vitro SafetyScreen panel; type: binding
T17 construct: Eurofins Discovery (outsourced panel) PP223
T17 sequence (P08172 whole entry): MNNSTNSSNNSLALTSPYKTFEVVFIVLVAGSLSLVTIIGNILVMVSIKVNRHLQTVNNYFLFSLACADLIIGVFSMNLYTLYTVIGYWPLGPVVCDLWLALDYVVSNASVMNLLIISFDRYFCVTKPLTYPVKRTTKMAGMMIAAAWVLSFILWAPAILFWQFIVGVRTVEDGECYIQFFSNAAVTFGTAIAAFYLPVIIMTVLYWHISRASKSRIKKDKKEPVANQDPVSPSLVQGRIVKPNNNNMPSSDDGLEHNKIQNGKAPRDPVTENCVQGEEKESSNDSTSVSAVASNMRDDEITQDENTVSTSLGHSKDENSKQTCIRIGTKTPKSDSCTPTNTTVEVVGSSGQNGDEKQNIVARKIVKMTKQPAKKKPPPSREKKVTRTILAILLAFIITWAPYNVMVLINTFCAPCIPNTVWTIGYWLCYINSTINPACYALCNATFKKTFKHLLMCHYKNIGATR
Protocol: as §1

[19] = molecular target: T18, Melanocortin MC1 (Homo sapiens, UniProt Q01726); test: In vitro SafetyScreen panel; type: binding
T18 construct: Eurofins Discovery (contract panel) Item PP223
Protocol: as §1

[20] = molecular target: T19, Glucocorticoid (Homo sapiens, UniProt P04150); test: In vitro SafetyScreen panel; type: binding
T19 construct: Eurofins Discovery (contract panel) Item PP223
T19 sequence (P04150 whole entry): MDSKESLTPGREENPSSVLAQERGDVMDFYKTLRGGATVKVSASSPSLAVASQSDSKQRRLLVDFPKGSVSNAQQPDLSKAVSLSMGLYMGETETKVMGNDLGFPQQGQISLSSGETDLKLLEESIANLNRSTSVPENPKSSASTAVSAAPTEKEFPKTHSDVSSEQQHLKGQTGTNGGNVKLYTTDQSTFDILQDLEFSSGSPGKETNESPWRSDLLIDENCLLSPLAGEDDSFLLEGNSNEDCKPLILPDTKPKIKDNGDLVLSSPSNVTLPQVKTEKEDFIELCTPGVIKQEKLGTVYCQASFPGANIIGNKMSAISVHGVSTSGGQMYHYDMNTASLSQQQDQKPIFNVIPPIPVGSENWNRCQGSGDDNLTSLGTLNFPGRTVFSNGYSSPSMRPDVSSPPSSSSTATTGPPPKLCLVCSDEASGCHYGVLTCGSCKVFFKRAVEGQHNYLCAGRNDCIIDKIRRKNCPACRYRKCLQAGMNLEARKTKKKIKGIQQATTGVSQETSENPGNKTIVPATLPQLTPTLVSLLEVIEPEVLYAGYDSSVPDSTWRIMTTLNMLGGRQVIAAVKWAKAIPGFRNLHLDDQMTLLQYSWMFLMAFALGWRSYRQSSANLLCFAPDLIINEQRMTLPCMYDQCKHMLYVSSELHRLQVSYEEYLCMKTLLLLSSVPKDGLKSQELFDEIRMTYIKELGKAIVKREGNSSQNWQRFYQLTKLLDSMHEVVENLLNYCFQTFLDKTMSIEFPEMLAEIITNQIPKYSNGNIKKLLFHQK
Protocol: as §1

[21] = molecular target: T20, Adrenergic β2 (Homo sapiens, UniProt P07550); test: In vitro SafetyScreen panel; type: binding
T20 construct: Eurofins Discovery (contract panel) PP223
Protocol: as §1

[22] = molecular target: T21, PPARγ (Homo sapiens, UniProt P37231); test: In vitro SafetyScreen panel; type: binding
T21 construct: Eurofins Discovery (outsourced panel) PP223
Protocol: as §1

[23] = molecular target: T22, Transporter, Serotonin (5-Hydroxytryptamine) (SERT) (Homo sapiens, UniProt P31645); test: In vitro SafetyScreen panel; type: binding
T22 construct: Eurofins Discovery (contract panel) PP223
T22 sequence (P31645 whole entry): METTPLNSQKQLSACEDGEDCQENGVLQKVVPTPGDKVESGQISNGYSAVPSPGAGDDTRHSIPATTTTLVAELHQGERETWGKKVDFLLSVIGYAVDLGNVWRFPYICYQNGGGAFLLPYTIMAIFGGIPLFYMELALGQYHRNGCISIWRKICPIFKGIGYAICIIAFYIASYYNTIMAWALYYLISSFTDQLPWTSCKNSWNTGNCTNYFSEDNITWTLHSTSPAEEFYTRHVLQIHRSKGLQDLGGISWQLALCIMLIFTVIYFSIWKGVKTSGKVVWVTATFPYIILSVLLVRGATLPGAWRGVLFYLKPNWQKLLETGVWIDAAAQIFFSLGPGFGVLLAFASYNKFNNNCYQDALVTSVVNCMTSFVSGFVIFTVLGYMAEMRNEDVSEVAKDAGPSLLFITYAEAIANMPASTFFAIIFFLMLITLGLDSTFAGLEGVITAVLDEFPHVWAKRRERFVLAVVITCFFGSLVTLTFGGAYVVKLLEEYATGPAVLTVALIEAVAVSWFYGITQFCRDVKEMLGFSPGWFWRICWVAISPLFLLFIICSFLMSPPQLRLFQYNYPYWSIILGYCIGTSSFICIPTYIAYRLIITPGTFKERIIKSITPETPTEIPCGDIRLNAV
Protocol: as §1

[24] = molecular target: T23, Adenosine A1 (Homo sapiens, UniProt P30542); test: In vitro SafetyScreen panel; type: binding
T23 construct: Eurofins Discovery (contract panel) PP223
T23 sequence (P30542 whole entry): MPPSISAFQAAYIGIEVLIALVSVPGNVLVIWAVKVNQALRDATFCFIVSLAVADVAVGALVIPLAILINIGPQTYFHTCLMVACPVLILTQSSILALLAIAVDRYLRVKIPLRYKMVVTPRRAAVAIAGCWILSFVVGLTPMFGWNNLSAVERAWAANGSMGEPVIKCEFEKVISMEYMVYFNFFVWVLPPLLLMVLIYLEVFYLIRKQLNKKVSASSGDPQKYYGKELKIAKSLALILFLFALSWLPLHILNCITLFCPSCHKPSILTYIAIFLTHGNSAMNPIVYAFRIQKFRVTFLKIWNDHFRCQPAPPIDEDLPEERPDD
Protocol: as §1

[25] = molecular target: T24, Nicotinic Acetylcholine α1, Bungarotoxin (Homo sapiens, UniProt P02708+P07510+Q07001); test: In vitro SafetyScreen panel; type: binding
T24 construct: Eurofins Discovery (outsourced panel) PP223

SMILES: CC(=O)N1CC2(CCN(C(=O)[C@@H](CCCCN)NC(=O)[C@@H](CC(C)C)NC(=O)[C@@H](Cc3ccccc3)NC(=O)[C@H](N)Cc3ccccc3)CC2)C1 [HSK21542, 7-(D-phenylalanyl-D-phenylalanyl-D-leucyl-D-lysyl)-2-acetyl-2,7-diazaspiro (3.5)nonane]
- effect on respiratory rate [1]: no obvious effects
- inhibition at 10 µM [2]: 9%
- inhibition at 10 µM [3]: -8%
- inhibition at 10 µM [4]: 11%
- inhibition at 10 µM [5]: 12%
- inhibition at 10 µM [6]: 6%
- inhibition at 10 µM [7]: 17%
- inhibition at 10 µM [8]: 0%
- inhibition at 10 µM [9]: -1%
- inhibition at 10 µM [10]: -3%
- inhibition at 10 µM [11]: 1%
- inhibition at 10 µM [12]: 1%
- inhibition at 10 µM [13]: 3%
- inhibition at 10 µM [14]: 10%
- inhibition at 10 µM [15]: 1%
- inhibition at 10 µM [16]: 14%
- inhibition at 10 µM [17]: -6%
- inhibition at 10 µM [18]: 1%
- inhibition at 10 µM [19]: -3%
- inhibition at 10 µM [20]: 8%
- inhibition at 10 µM [21]: 3%
- inhibition at 10 µM [22]: 3%
- inhibition at 10 µM [23]: 7%
- inhibition at 10 µM [24]: 0%
- inhibition at 10 µM [25]: -5%
